In BindingDB's records for patent US12077506 (Nikang Therapeutics, 2024) one finds EC50 data, which are given here for one molecule.

The EC50 is the concentration needed to bring the measured effect to its halfway point. Lower therefore signals an effect from little substance.

The target of the assay is Endothelial PAS domain-containing protein 1 (Homo sapiens, UniProt Q99814). Put plainly: VEGF ELISA Assay. Here is the method: Four hours later, compounds were dispensed into wells by Tecan D300e digital dispenser with starting concentration of 10 uM and log of dilution down to 1 nM as final concentration. Each concentration of treatment was performed in duplicate. About 20 hours later, medium was removed and fresh medium was added, followed by compounds treatment as described above. After 24 hours, cell culture medium was collected to determine VEGF concentration using an ELISA kit (R&D systems, cat #DVE00) following the manufacturer's instruction.
For orientation: ELISA stands for enzyme-linked immunosorbent assay.

Endothelial PAS domain-containing protein 1, sequence (Q99814 whole entry, the tested form may be a part): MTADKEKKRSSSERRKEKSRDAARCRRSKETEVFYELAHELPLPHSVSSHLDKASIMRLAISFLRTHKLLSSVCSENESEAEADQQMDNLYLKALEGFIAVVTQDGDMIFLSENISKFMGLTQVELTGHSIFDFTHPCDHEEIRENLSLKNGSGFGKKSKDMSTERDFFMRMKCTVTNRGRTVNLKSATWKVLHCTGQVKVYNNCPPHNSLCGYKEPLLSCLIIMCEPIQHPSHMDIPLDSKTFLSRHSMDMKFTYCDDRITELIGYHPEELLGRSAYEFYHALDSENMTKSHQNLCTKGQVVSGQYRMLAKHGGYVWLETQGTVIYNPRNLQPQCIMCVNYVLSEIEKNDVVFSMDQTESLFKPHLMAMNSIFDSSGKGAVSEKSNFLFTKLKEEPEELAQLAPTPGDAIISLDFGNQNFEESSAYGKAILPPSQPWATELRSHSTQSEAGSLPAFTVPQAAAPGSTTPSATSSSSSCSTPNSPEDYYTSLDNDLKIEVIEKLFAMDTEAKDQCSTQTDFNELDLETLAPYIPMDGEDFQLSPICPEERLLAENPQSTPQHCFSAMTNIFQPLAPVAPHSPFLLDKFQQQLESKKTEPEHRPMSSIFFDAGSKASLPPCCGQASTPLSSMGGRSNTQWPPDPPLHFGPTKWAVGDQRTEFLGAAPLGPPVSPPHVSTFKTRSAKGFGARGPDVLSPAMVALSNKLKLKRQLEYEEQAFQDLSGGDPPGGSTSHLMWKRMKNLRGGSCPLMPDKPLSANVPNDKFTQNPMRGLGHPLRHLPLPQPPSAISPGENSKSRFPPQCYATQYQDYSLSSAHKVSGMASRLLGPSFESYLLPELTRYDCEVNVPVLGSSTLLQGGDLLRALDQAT

Consider `OC1c2c(ccc(Oc3cc(F)cc(F)c3)c2C(F)F)C(F)(F)C1(F)F` (stereo unspecified) [US12077506, Compound I-4], for which the EC50 came to 4 nM.
